The subject of this test is rabbit skeletal muscle myofibril preparations (approximately 90% fast fibers). Nature of the test: Activation of fast skeletal muscle fibers: enzymatic activity of myofibril preparations (PUMA assay system). It is filed as biochemical. Further details: unit not given here. The following applies: detergent treated myofibrils at pCa25%, 500 μM ATP. The text has this: Fast fiber activators were identified by measuring the enzymatic activity of muscle myofibril preparations using the proprietary PUMA™ (see, e.g., U.S. Pat. Nos. 6,410,254, 6,743,599, 7,202,051, and 7,378,254) assay system. Myofibril preparations consisted of rabbit skeletal muscle (approximately 90% fast fibers) that had been treated with a detergen (triton X-100) to remove cellular membranes and then homogenized. This preparation retained all of the sarcomeric components in a native conformation and the enzymatic activity was still regulated by calcium. Compounds were tested using a myofibril suspension and a level of calcium sufficient to increase enzymatic activity of the myofibrils to 25% of their maximal rate (termed pCa25%). Enzymatic activity was tracked via a kinetic assay with a UV absorption readout. Hits were identified as compounds that increased the rate of enzymatic activity by greater than 40% at 40 μM. Myofibril preparations are calcium regulated and were screened at a level of calcium sufficient to produce a 25% increase in enzymatic rate. Detergent treated myofibrils were incubated with 500 μM ATP and 40 μM compound and a kinetic read of UV absorbance performed. Data was normalized to control wells.

“6-chloro-1-(ethylpropyl)-7-(3-methoxyphenyl)imidazo[4,5-b]pyridin-2-ol”: the “AC1.4 Median” value (median value (no †)) was 2.001.

As for “6-chloro-7-(5-chloro(3-pyridyl))-1-(ethylpropyl)imidazo[4,5-b]pyridin-2-ol”, the “AC1.4 Median” value (median value (no †)) is listed as 1.899.

For the compound “6-chloro-1-(ethylpropyl)-7-[4-(trifluoromethoxy)phenyl]imidazo[4,5-b]pyridin-2-ol”, under “median value (no †)”, the “AC1.4 Median” value is given as 0.781.

In the case of “6-chloro-1-(ethylpropyl)-7-(6-methyl(3-pyridyl))imidazo[4,5-b]pyridin-2-ol”, under “median value (no †)”, the “AC1.4 Median” value was determined as 12.164.

In the case of “6-chloro-1-(ethylpropyl)-7-(1-methylpyrazol-3-yl)imidazo[4,5-b]pyridin-2-ol”, where the note is “median value (no †)”, the “AC1.4 Median” value is on record as 1.7950.

Consider “6-chloro-1-(ethylpropyl)-7-(1-methyl(1H-indazol-5-yl))imidazo[4,5-b]pyridin-2-ol”, for which, for the setting “median value (no †)”, the “AC1.4 Median” value is given as 5.365.

In the case of `Cn1c(O)nc2ncc(Cl)c(-c3ccc(F)cc3)c21` [6-chloro-7-(4-fluorophenyl)-1-methylimidazo[4,5-b]pyridin-2-ol], the “AC1.4 Median” value (median value (no †)) was 12.620.

With “6-chloro-1-(ethylpropyl)-7-(3-fluoro-4-methoxyphenyl)imidazo[4,5-b]pyridin-2-ol”, the “AC1.4 Median” value (median value (no †)) is on record as 2.102.

“6-chloro-1-(ethylpropyl)-7-(2-methylphenyl)imidazo[4,5-b]pyridin-2-ol”: for the setting “median value (no †)”, the “AC1.4 Median” value was determined as 1.688.

Regarding “6-chloro-1-(ethylpropyl)-7-(3-methylphenyl)imidazo[4,5-b]pyridin-2-ol”, the “AC1.4 Median” value (median value (no †)) came out at 0.482.

For “6-chloro-1-(ethylpropyl)-7-(4-methyl(2-pyridyl))imidazo[4,5-b]pyridin-2-ol”, the “AC1.4 Median” value (median value (no †)) is on record as 11.301.

On to `CC[C@@H](CO)n1c(O)nc2ncc(Cl)c(-c3ccc(Cl)cn3)c21` [1-((1S)-1-ethyl-2-hydroxyethyl)-6-chloro-7-(5-chloro(2-pyridyl))imidazo[4,5-b]pyridin-2-ol], for which the “AC1.4 Median” value (median value (no †)) is given as 9.592.

Consider “6-chloro-7-(5-chloro(2-pyridyl))-1-(ethylpropyl)imidazo[4,5-b]pyridin-2-ol”, for which the “AC1.4 Median” value (cells marked †: Mean value) is 0.320†.

Consider “6-chloro-1-(ethylpropyl)-7-(3-fluoro(4-pyridyl))imidazo[4,5-b]pyridin-2-ol”, for which the “AC1.4 Median” value (median value (no †)) is reported as 1.709.

For `CC[C@H](CO)n1c(O)nc2ncc(Cl)c(-c3ccc(F)c(F)c3)c21` [1-((1R)-1-ethyl-2-hydroxyethyl)-7-(3,4-difluorophenyl)-6-chloroimidazo[4,5-b]pyridin-2-ol], the “AC1.4 Median” value (median value (no †)) is 4.034.

As for “6-chloro-7-(3-chloro(4-pyridyl))-1-(ethylpropyl)imidazo[4,5-b]pyridin-2-ol”, the “AC1.4 Median” value (median value (no †)) turned out to be 4.471.

As for `OCCCn1c(O)nc2ncc(Cl)c(-c3ccc(F)cc3)c21` [6-chloro-7-(4-fluorophenyl)-1-(3-hydroxypropyl)imidazo[4,5-b]pyridin-2-ol], where the note is “median value (no †)”, the “AC1.4 Median” value is recorded as 7.015.

For `CC[C@@H](CO)n1c(O)nc2ncc(Cl)c(-c3ccc(C)cc3)c21` [1-((1S)-1-ethyl-2-hydroxyethyl)-6-chloro-7-(4-methylphenyl)imidazo[4,5-b]pyridin-2-ol], the “AC1.4 Median” value (median value (no †)) is 2.194.

Take “6-chloro-1-(ethylpropyl)-7-(5-fluoro(2-pyridyl))imidazo[4,5-b]pyridin-2-ol”: the “AC1.4 Median” value (cells marked †: Mean value) is reported as 0.268†.

Turning to `CC[C@@H](COC)n1c(O)nc2ncc(Cl)c(-c3ccc(F)cn3)c21` [1-[(1S)-1-(methoxymethyl)propyl]-6-chloro-7-(5-fluoro(2-pyridyl))imidazo[4,5-b]pyridin-2-ol], the “AC1.4 Median” value (median value (no †)) worked out at 3.771.

For `CC[C@H](c1nc2nc(O)[nH]c2c(-c2ccc(F)cc2)c1Cl)C(CO)CO` [2-{(1S)-1-[6-chloro-7-(4-fluorophenyl)-2-hydroxyimidazo[4,5-b]pyridinyl]propyl}propane-1,3-diol], the “AC1.4 Median” value (median value (no †)) was found to be 4.6812.

Regarding “3-[6-chloro-1-(ethylpropyl)-2-hydroxyimidazo[4,5-b]pyridin-7-yl]benzenecarbonitrile”, the “AC1.4 Median” value (median value (no †)) amounted to 3.336.

In the case of `CC[C@H](CO)n1c(O)nc2ncc(Cl)c(-c3ccc(F)cc3)c21` [1-((1R)-1-ethyl-2-hydroxyethyl)-6-chloro-7-(4-fluorophenyl)imidazo[4,5-b]pyridin-2-ol], the “AC1.4 Median” value (median value (no †)) is 2.367.

Consider `CC[C@H](COC)n1c(O)nc2ncc(Cl)c(-c3ccc(F)cc3)c21` [1-[(1R)-1-(methoxymethyl)propyl]-6-chloro-7-(4-fluorophenyl)imidazo[4,5-b]pyridin-2-ol], for which the “AC1.4 Median” value (median value (no †)) is recorded as 0.249.

Consider `CC[C@H](C)n1c(O)nc2ncc(Cl)c(-n3cccn3)c21` [1-((1S)-1-methylpropyl)-6-chloro-7-pyrazolylimidazo[4,5-b]pyridin-2-ol], for which the “AC1.4 Median” value (median value (no †)) is reported as 1.0174.

As to `CCC(CC)n1c(O)nc2ncc(Cl)c(-c3ccc(S(C)(=O)=O)cc3)c21` [1-[6-chloro-1-(ethylpropyl)-2-hydroxyimidazo[4,5-b]pyridin-7-yl]-4-(methylsulfonyl)benzene], the “AC1.4 Median” value (median value (no †)) amounted to 45.324.

With `CC[C@@H](CO)n1c(O)nc2ncc(Cl)c(-c3ccc(OC)cc3)c21` [1-((1S)-1-ethyl-2-hydroxyethyl)-6-chloro-7-(4-methoxyphenyl)imidazo[4,5-b]pyridin-2-ol], the “AC1.4 Median” value (median value (no †)) is 5.251.

For the compound `CC[C@@H](CO)n1c(O)nc2ncc(F)c(-c3ccc(Cl)cc3)c21` [1-((1S)-1-ethyl-2-hydroxyethyl)-7-(4-chlorophenyl)-6-fluoroimidazo[4,5-b]pyridin-2-ol], the “AC1.4 Median” value (median value (no †)) turned out to be 2.643.

For “6-chloro-1-(ethylpropyl)-7-(2-fluorophenyl)imidazo[4,5-b]pyridin-2-ol”, the “AC1.4 Median” value (cells marked †: Mean value) is given as 0.230†.

For the compound “6-chloro-1-(ethylpropyl)-7-(6-methyl(2-pyridyl))imidazo[4,5-b]pyridin-2-ol”, where the note is “median value (no †)”, the “AC1.4 Median” value is given as 4.048.

“6-chloro-7-(3-chlorophenyl)-1-(ethylpropyl)imidazo[4,5-b]pyridin-2-ol”: the “AC1.4 Median” value (cells marked †: Mean value) was 0.330†.

`CC[C@@H](n1c(O)nc2ncc(Cl)c(-c3ccc(F)cn3)c21)C(C)(C)O` [1-((1R)-1-ethyl-2-hydroxy-2-methylpropyl)-6-chloro-7-(5-fluoro(2-pyridyl))imidazo[4,5-b]pyridin-2-ol]: the “AC1.4 Median” value (median value (no †)) was determined as 8.386.

For the compound `CC[C@@H](CO)n1c(O)nc2ncc(Cl)c(-n3cccn3)c21` [1-((1S)-1-ethyl-2-hydroxyethyl)-6-chloro-7-pyrazolylimidazo[4,5-b]pyridin-2-ol], under “median value (no †)”, the “AC1.4 Median” value is 7.2481.

On to `CC[C@@H](CO)n1c(O)nc2ncc(Cl)c(-c3ccc(Cl)s3)c21` [1-((1S)-1-ethyl-2-hydroxyethyl)-6-chloro-7-(5-chloro(2-thienyl))imidazo[4,5-b]pyridin-2-ol], for which the “AC1.4 Median” value (cells marked †: Mean value) is given as 0.178†.

On to `CC[C@@H](CO)n1c(O)nc2ncc(Cl)c(-c3ccc(F)c(F)c3)c21` [1-((1S)-1-ethyl-2-hydroxyethyl)-7-(3,4-difluorophenyl)-6-chloroimidazo[4,5-b]pyridin-2-ol], for which the “AC1.4 Median” value (median value (no †)) came out at 0.707.

For “6-chloro-1-(ethylpropyl)-7-pyrazolylimidazo[4,5-b]pyridin-2-ol”, the “AC1.4 Median” value (median value (no †)) is reported as 0.3235.

As to “6-chloro-1-(ethylpropyl)-7-(2-methoxy(4-pyridyl))imidazo[4,5-b]pyridin-2-ol”, under “median value (no †)”, the “AC1.4 Median” value is recorded as 2.808.

Take “6-chloro-1-(ethylpropyl)-7-(2-methyl(1,2,3,4-tetraazol-5-yl))imidazo[4,5-b]pyridin-2-ol”: the “AC1.4 Median” value (median value (no †)) was 6.404.

On to “6-chloro-1-(ethylpropyl)-7-(3-hydroxyphenyl)imidazo[4,5-b]pyridin-2-ol”, for which the “AC1.4 Median” value (median value (no †)) is given as 3.021.

Consider “6-chloro-1-(ethylpropyl)-7-[3-(methoxymethyl)phenyl]imidazo[4,5-b]pyridin-2-ol”, for which, where the note is “median value (no †)”, the “AC1.4 Median” value is on record as 8.109.

On to `C=CCn1c(O)nc2ncc(Cl)c(-c3ccc(F)cc3)c21` [6-chloro-7-(4-fluorophenyl)-1-prop-2-enylimidazo[4,5-b]pyridin-2-ol], for which the “AC1.4 Median” value (median value (no †)) is on record as 1.947.

Turning to `CCC(CC)n1c(O)nc2ncc(Cl)c(-c3cccc(S(C)(=O)=O)c3)c21` [1-[6-chloro-1-(ethylpropyl)-2-hydroxyimidazo[4,5-b]pyridin-7-yl]-3-(methylsulfonyl)benzene], the “AC1.4 Median” value (median value (no †)) amounted to 38.633.

In the case of “{4-[6-chloro-1-(ethylpropyl)-2-hydroxyimidazo[4,5-b]pyridin-7-yl]phenyl}(methylsulfonyl)amine”, the “AC1.4 Median” value (median value (no †)) stood at 26.368.

As to “6-chloro-1-(ethylpropyl)-7-(4-pyridyl)imidazo[4,5-b]pyridin-2-ol”, the “AC1.4 Median” value (median value (no †)) was determined as 3.015.

Consider `C[C@@H](CCO)n1c(O)nc2ncc(Cl)c(-c3ccc(F)cc3)c21` [1-((1S)-3-hydroxy-1-methylpropyl)-6-chloro-7-(4-fluorophenyl)imidazo[4,5-b]pyridin-2-ol], for which, under “median value (no †)”, the “AC1.4 Median” value came to 2.309.

With `CC[C@@H](CO)n1c(O)nc2ncc(Cl)c(-c3cccs3)c21` [1-((1S)-1-ethyl-2-hydroxyethyl)-6-chloro-7-(2-thienyl)imidazo[4,5-b]pyridin-2-ol], under “median value (no †)”, the “AC1.4 Median” value worked out at 1.349.

Take `CC[C@H](n1c(O)nc2ncc(Cl)c(-c3ccc(F)cc3)c21)C(C)(C)O` [1-((1S)-1-ethyl-2-hydroxy-2-methylpropyl)-6-chloro-7-(4-fluorophenyl)imidazo[4,5-b]pyridin-2-ol]: for the setting “cells marked †: Mean value”, the “AC1.4 Median” value is listed as 0.320†.

The values are drawn from patent publication US7989469B2, “Certain chemical entities, compositions, and methods” (Cytokinetics, Incorporated, priority 2008, dated 2011).
